The values that follow come from the supplement of paper PMC10307832.

What all share (test): relative viability (nuclei count vs DMSO), 5 days (fraction); higher = more cells survive
Compound in the experiment “Bleomycin + Vorinostat”: CC1=C(N=C(N=C1N)[C@H](CC(=O)N)NC[C@@H](C(=O)N)N)C(=O)N[C@@H]([C@H](C2=CN=CN2)OC3C(C(C(C(O3)CO)O)O)OC4C(C(C(C(O4)CO)O)OC(=O)N)O)C(=O)N[C@H](C)[C@H]([C@H](C)C(=O)N[C@@H]([C@@H](C)O)C(=O)NCCC5=NC(=CS5)C6=NC(=CS6)C(=O)NCCC[S+](C)C)O [Bleomycin] + O=C(CCCCCCC(=O)Nc1ccccc1)NO [Vorinostat] (partner 1 µM)
The settings on record: main component drawn. The procedure, abridged:
(§1)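 Each reported value is a median over duplicate plates. It expresses relative viability: treated-well nuclei count divided by vehicle-well nuclei count. Lung cancer cell lines in 1536-well plates were dosed by pin tool a day after seeding, alone with one drug or with a fixed anchor-drug dose plus five library-drug doses (not always all listed) in √10 steps, and nuclei were counted after 5 days.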

Compound in the experiment “Etoposide + Dasatinib”: COc1cc([C@@H]2c3cc4c(cc3[C@@H](O[C@@H]3O[C@@H]5CO[C@@H](C)O[C@H]5[C@H](O)[C@H]3O)[C@H]3COC(=O)[C@H]23)OCO4)cc(OC)c1O [Etoposide] + Cc1nc(Nc2ncc(C(=O)Nc3c(C)cccc3Cl)s2)cc(N2CCN(CCO)CC2)n1 [Dasatinib] (partner 0.075 µM)
The procedure, abridged:
as §1

Compound in the experiment “Etoposide + Decitabine”: COc1cc([C@@H]2c3cc4c(cc3[C@@H](O[C@@H]3O[C@@H]5CO[C@@H](C)O[C@H]5[C@H](O)[C@H]3O)[C@H]3COC(=O)[C@H]23)OCO4)cc(OC)c1O [Etoposide] + Nc1ncn([C@H]2C[C@H](O)[C@@H](CO)O2)c(=O)n1 [Decitabine] (partner 2 µM)
The procedure, abridged:
as §1

Compound in the experiment “Etoposide + Vorinostat”: COc1cc([C@@H]2c3cc4c(cc3[C@@H](O[C@@H]3O[C@@H]5CO[C@@H](C)O[C@H]5[C@H](O)[C@H]3O)[C@H]3COC(=O)[C@H]23)OCO4)cc(OC)c1O [Etoposide] + O=C(CCCCCCC(=O)Nc1ccccc1)NO [Vorinostat] (partner 1 µM)
In a few lines:
as §1

Turning to NCI-H520, the relative viability with Bleomycin + Vorinostat (first compound 0.01 µM) turned out to be 0.592; with Bleomycin + Vorinostat (first compound 0.03162 µM), 0.743; with Bleomycin + Vorinostat (first compound 0.1 µM), 0.589; in the experiment with Bleomycin + Vorinostat (first compound 0.3162 µM), 0.574; in the experiment with Bleomycin + Vorinostat (first compound 1 µM) it was 0.416; with Etoposide + Dasatinib (first compound 0.01 µM), 0.22. Further, the relative viability stood at 0.239 with Etoposide + Dasatinib (first compound 0.03162 µM); 0.181 in the experiment with Etoposide + Dasatinib (first compound 0.1 µM); 0.208 with Etoposide + Dasatinib (first compound 0.3162 µM); 0.269 with Etoposide + Dasatinib (first compound 1 µM); 0.532 in the experiment with Etoposide + Decitabine (first compound 0.01 µM); 0.493 with Etoposide + Decitabine (first compound 0.03162 µM). Besides, the relative viability with Etoposide + Decitabine (first compound 0.1 µM) was found to be 0.519; with Etoposide + Decitabine (first compound 0.3162 µM), 0.424; with Etoposide + Decitabine (first compound 1 µM), 0.376; in the experiment with Etoposide + Vorinostat (first compound 0.01 µM), 0.777; with Etoposide + Vorinostat (first compound 0.03162 µM), 0.776; in the experiment with Etoposide + Vorinostat (first compound 0.1 µM), 0.878. Further, the relative viability with Etoposide + Vorinostat (first compound 0.3162 µM) amounted to 0.591; with Etoposide + Vorinostat (first compound 1 µM) it was 0.461.
With NCI-H1666, the relative viability in the experiment with Bleomycin + Vorinostat (first compound 0.01 µM) is 0.786; in the experiment with Bleomycin + Vorinostat (first compound 0.03162 µM), 0.926; in the experiment with Bleomycin + Vorinostat (first compound 0.1 µM) it was 0.885; with Bleomycin + Vorinostat (first compound 0.3162 µM), 0.652; with Bleomycin + Vorinostat (first compound 1 µM) it was 0.613; with Etoposide + Dasatinib (first compound 0.01 µM), 0.796. The relative viability in the experiment with Etoposide + Dasatinib (first compound 0.03162 µM) amounted to 0.802; with Etoposide + Dasatinib (first compound 0.1 µM), 0.594; with Etoposide + Dasatinib (first compound 0.3162 µM), 0.361; with Etoposide + Dasatinib (first compound 1 µM) it was 0.293; with Etoposide + Decitabine (first compound 0.01 µM), 0.746; with Etoposide + Decitabine (first compound 0.03162 µM), 0.798. For the same cell line, the relative viability was determined as 0.693 in the experiment with Etoposide + Decitabine (first compound 0.1 µM); 0.582 in the experiment with Etoposide + Decitabine (first compound 0.3162 µM); 0.452 with Etoposide + Decitabine (first compound 1 µM); 0.94 in the experiment with Etoposide + Vorinostat (first compound 0.01 µM); 0.933 with Etoposide + Vorinostat (first compound 0.03162 µM); 0.918 with Etoposide + Vorinostat (first compound 0.1 µM). The figures for the relative viability in the experiment with Etoposide + Vorinostat (first compound 0.3162 µM) and with Etoposide + Vorinostat (first compound 1 µM) were 0.632 and 0.549, respectively.
Consider NCI-H1651, for which the relative viability in the experiment with Bleomycin + Vorinostat (first compound 0.01 µM) worked out at 0.519; with Bleomycin + Vorinostat (first compound 0.03162 µM) it was 0.505; with Bleomycin + Vorinostat (first compound 0.1 µM) it was 0.392; with Bleomycin + Vorinostat (first compound 0.3162 µM) it was 0.356; in the experiment with Bleomycin + Vorinostat (first compound 1 µM), 0.152; in the experiment with Etoposide + Dasatinib (first compound 0.01 µM) it was 0.282. Also, the relative viability amounted to 0.426 in the experiment with Etoposide + Dasatinib (first compound 0.03162 µM); 0.385 in the experiment with Etoposide + Dasatinib (first compound 0.1 µM); 0.189 with Etoposide + Dasatinib (first compound 0.3162 µM); 0.0972 in the experiment with Etoposide + Dasatinib (first compound 1 µM); 0.612 with Etoposide + Decitabine (first compound 0.01 µM); 0.688 with Etoposide + Decitabine (first compound 0.03162 µM). Also, the relative viability was 0.442 with Etoposide + Decitabine (first compound 0.1 µM); 0.241 with Etoposide + Decitabine (first compound 0.3162 µM); 0.128 in the experiment with Etoposide + Decitabine (first compound 1 µM); 0.602 with Etoposide + Vorinostat (first compound 0.01 µM); 0.65 with Etoposide + Vorinostat (first compound 0.03162 µM); 0.399 with Etoposide + Vorinostat (first compound 0.1 µM). The relative viability in the experiment with Etoposide + Vorinostat (first compound 0.3162 µM) came out at 0.387; with Etoposide + Vorinostat (first compound 1 µM) it was 0.189.
For NCI-H1755, the relative viability with Bleomycin + Vorinostat (first compound 0.01 µM) was 0.606; with Bleomycin + Vorinostat (first compound 0.03162 µM), 0.736; with Bleomycin + Vorinostat (first compound 0.1 µM), 0.714; with Bleomycin + Vorinostat (first compound 0.3162 µM) it was 0.521; with Bleomycin + Vorinostat (first compound 1 µM), 0.636; with Etoposide + Dasatinib (first compound 0.01 µM), 0.433. Besides, the relative viability was found to be 0.452 with Etoposide + Dasatinib (first compound 0.03162 µM); 0.469 with Etoposide + Dasatinib (first compound 0.1 µM); 0.413 in the experiment with Etoposide + Dasatinib (first compound 0.3162 µM); 0.394 with Etoposide + Dasatinib (first compound 1 µM); 0.795 with Etoposide + Decitabine (first compound 0.01 µM); 0.731 with Etoposide + Decitabine (first compound 0.03162 µM). The relative viability with Etoposide + Decitabine (first compound 0.1 µM) was 0.712; with Etoposide + Decitabine (first compound 0.3162 µM), 0.622; with Etoposide + Decitabine (first compound 1 µM) it was 0.553; with Etoposide + Vorinostat (first compound 0.01 µM), 0.748; in the experiment with Etoposide + Vorinostat (first compound 0.03162 µM), 0.896; with Etoposide + Vorinostat (first compound 0.1 µM), 0.694. The relative viability with Etoposide + Vorinostat (first compound 0.3162 µM) is 0.743; with Etoposide + Vorinostat (first compound 1 µM), 0.474.
On to NCI-H727, for which the relative viability was found to be 1.18 in the experiment with Bleomycin + Vorinostat (first compound 0.01 µM); 1.17 with Bleomycin + Vorinostat (first compound 0.03162 µM); 1.08 in the experiment with Bleomycin + Vorinostat (first compound 0.1 µM); 0.618 with Bleomycin + Vorinostat (first compound 0.3162 µM); 0.93 in the experiment with Bleomycin + Vorinostat (first compound 1 µM); 0.4 in the experiment with Etoposide + Dasatinib (first compound 0.01 µM). Moreover, the relative viability in the experiment with Etoposide + Dasatinib (first compound 0.03162 µM) is 0.355; with Etoposide + Dasatinib (first compound 0.3162 µM), 0.37; with Etoposide + Dasatinib (first compound 1 µM), 0.408; with Etoposide + Decitabine (first compound 0.01 µM), 1.11; with Etoposide + Decitabine (first compound 0.03162 µM), 0.985; with Etoposide + Decitabine (first compound 0.1 µM), 0.681. Further, the relative viability is 0.796 with Etoposide + Decitabine (first compound 0.3162 µM); 0.63 with Etoposide + Decitabine (first compound 1 µM); 1.16 with Etoposide + Vorinostat (first compound 0.01 µM); 1.47 with Etoposide + Vorinostat (first compound 0.03162 µM); 0.873 with Etoposide + Vorinostat (first compound 0.1 µM); 1.12 in the experiment with Etoposide + Vorinostat (first compound 0.3162 µM). Moreover, the relative viability in the experiment with Etoposide + Vorinostat (first compound 1 µM) came to 0.96.
For the cell line HARA, the relative viability with Bleomycin + Vorinostat (first compound 0.01 µM) amounted to 0.458; with Bleomycin + Vorinostat (first compound 0.03162 µM) it was 0.469; with Bleomycin + Vorinostat (first compound 0.1 µM) it was 0.317; with Bleomycin + Vorinostat (first compound 0.3162 µM) it was 0.258; with Bleomycin + Vorinostat (first compound 1 µM), 0.173; in the experiment with Etoposide + Dasatinib (first compound 0.01 µM) it was 0.263. The relative viability in the experiment with Etoposide + Dasatinib (first compound 0.03162 µM) is 0.298; in the experiment with Etoposide + Dasatinib (first compound 0.1 µM) it was 0.259; in the experiment with Etoposide + Dasatinib (first compound 0.3162 µM) it was 0.23; with Etoposide + Dasatinib (first compound 1 µM), 0.181; with Etoposide + Decitabine (first compound 0.01 µM), 0.556; with Etoposide + Decitabine (first compound 0.03162 µM), 0.578. Also, the relative viability with Etoposide + Decitabine (first compound 0.1 µM) was 0.573; with Etoposide + Decitabine (first compound 0.3162 µM), 0.399; in the experiment with Etoposide + Decitabine (first compound 1 µM), 0.301; with Etoposide + Vorinostat (first compound 0.01 µM), 0.443; in the experiment with Etoposide + Vorinostat (first compound 0.03162 µM), 0.573; with Etoposide + Vorinostat (first compound 0.1 µM) it was 0.586. Also, the relative viability came out at 0.125 in the experiment with Etoposide + Vorinostat (first compound 0.3162 µM) and 0.095 with Etoposide + Vorinostat (first compound 1 µM).
Take NCI-H647: the relative viability with Bleomycin + Vorinostat (first compound 0.01 µM) stood at 0.205; in the experiment with Bleomycin + Vorinostat (first compound 0.03162 µM), 0.132; with Bleomycin + Vorinostat (first compound 0.1 µM) it was 0.105; with Bleomycin + Vorinostat (first compound 0.3162 µM) it was 0.0704; with Bleomycin + Vorinostat (first compound 1 µM) it was 0.0607; with Etoposide + Dasatinib (first compound 0.01 µM), 0.157. Besides, the relative viability is 0.161 with Etoposide + Dasatinib (first compound 0.03162 µM); 0.174 with Etoposide + Dasatinib (first compound 0.1 µM); 0.145 in the experiment with Etoposide + Dasatinib (first compound 0.3162 µM); 0.036 with Etoposide + Dasatinib (first compound 1 µM); 0.363 in the experiment with Etoposide + Decitabine (first compound 0.01 µM); 0.369 with Etoposide + Decitabine (first compound 0.03162 µM). Further, the relative viability with Etoposide + Decitabine (first compound 0.1 µM) stood at 0.31; in the experiment with Etoposide + Decitabine (first compound 0.3162 µM), 0.193; with Etoposide + Decitabine (first compound 1 µM), 0.175; with Etoposide + Vorinostat (first compound 0.01 µM), 0.467; with Etoposide + Vorinostat (first compound 0.03162 µM), 0.631; with Etoposide + Vorinostat (first compound 0.1 µM), 0.657. Moreover, the figures for the relative viability with Etoposide + Vorinostat (first compound 0.3162 µM) and in the experiment with Etoposide + Vorinostat (first compound 1 µM) were 0.181 and 0.103, respectively.
